Source: patent US7763580B2, “Methods for treating conditions associated with the accumulation of excess extracellular matrix” (University of Utah Research Foundation, priority 1999, dated 2010)

Key:
[1] = system: Normal fetal human mesangial cells; experiment: Renin-induced TGFβ production by fetal human mesangial cells (ELISA); assay type: cell-based; conditions: 10^−5 M inhibitor added at zero time with 10^−7 M human recombinant renin, FIG. 3
Method: Normal fetal human mesangial cells (Clonetics Corp., Clonetics, Walkersville, Md.) passaged 5 to 8 times, were plated (3,000 cell/cm^2) in 12 well plates in 2 ml of medium (Mesangial Basal Medium (Clonetics Corp.) containing 5% FCS, 10 μg/ml penicillin and 100 μg/ml streptomycin) and allowed to grow to confluence for 48 hours at 37EC, 5% CO2. Cultures were washed three times using sterile phosphate buffered saline at room temperature and then 2 ml/well of serum free MBM medium to induce quiescence. After 48 hours, the serum-free medium was removed and 2 ml/well of fresh serum-free medium was added. Human recombinant renin (Hoffman-La Roche Ltd., Basel, Switzerland) in concentrations from 10^−6 to 10^−12 M was added to each well. A blank and 5 ng/ml of TGFβ (R & D Systems, Minneapolis, Minn.) were used as controls. Cells and supernatants were harvested by centrifugation after 24 hrs of culture and frozen at ^−70EC until analysis. The total production and release of TGFβ into the culture supernatant was measured using an ELISA kit (R & D Systems). Induction of PAI-1 and fibronectin in the supernatant are also measured using anti-PAI-1 and anti-fibronectin antibodies in an ELISA to provide further confirmation of the inhibition of TGFβ. TGFβ, fibronectin and PAI-1 mRNA are measured using semi-quantitative RT-PCR.
Renin inhibitor Ro42-5892 (Hoffman-LaRoche, Basel, Switzerland), Losartan™ (Merck Pharmaceuticals, West Point, Pa.), Enalapril™ (Sigma Chemical Co., St. Louis, Mo., Prod. No. E6888), or TGFβ1 neutralizing antibody (R & D Systems) were added in the amounts indicated below to separate wells in triplicate to block the renin cascade at different sites after stimulation by renin: • 10^−5 M Renin Inhibitor R042-5892 (Hoffman-LaRoche) • 30 ng/ml Anti-TGFβ1 antibody (R & D Systems, #AB 101 NA) • 30 ng/ml Chicken IgG (control for anti-TGFβ1 antibody, R & D Systems, # AB 101 C) • 10^−5 M Enalapril™ (Sigma Chemical Co., St. Louis, Mo.) • 10^−5 M Losartan™ (Merck Pharmaceuticals, West Point, Pa.)
(§1) These inhibitors were added at zero time with 10^−7 M human recombinant renin (Hoffman-LaRoche).

[2] = system: adult human mesangial cells; experiment: Renin-induced TGFβ and fibronectin production by adult human mesangial cells (ELISA); assay type: cell-based; conditions: 10^−5 M inhibitor added at zero time with 10^−7 M human recombinant renin, adult cells, FIG. 7
Method: Primary cultures of adult human mesangial cells were grown from human nephrectomy tissues using standard methods. Cells were passaged 4-7 times and then plated (3,000 cell/cm^2) in 12 well plates in 2 ml of medium (Mesangial Basal Medium (Clonetics Corp.) containing 5% FCS, 10 μg/ml penicillin and 100 μg/ml streptomycin) and allowed to grow to 70% confluency for 48 hours at 37EC, 5% CO2. Cultures were washed three times using sterile phosphate buffered saline at room temperature and then 2 ml/well of serum free MBM medium to induce quiescence. After 48 hours, the serum-free medium was removed and 2 ml/well of fresh serum-free medium was added for 24 hours. Human recombinant renin (HrRenin, Hoffman-La Roche Ltd., Basel, Switzerland) in concentrations from 10^−6 to 10^−12 M was added to each well for 24 hours. A blank (no HrRenin) was used as a control. Cells and supernatants were harvested by centrifugation after 24 hrs of culture and frozen at ^−70EC until analysis.
The total production and release of TGFβ into the culture supernatant was measured using an ELISA kit (R & D Systems). Induction of the matrix protein fibronectin (Fn) in the supernatant was measured using anti-fibronectin antibodies in an ELISA to provide further confirmation of induction of TGFβ. Renin-induced induction of TGFβ, fibronectin and PAI-1 mRNA were measured over time using semi-quantitative RT-PCR in a multiplex system where multiple cDNAs are amplified simultaneously according to Dostal et al., Anal. Biochem. 223:239-250 (1994), incorporated by reference herein Determinations were done in triplicate mesangial cell cultures.
Renin inhibitor Ro42-5892 (Hoffman-LaRoche, Basel, Switzerland), Losartan™ (Merck Pharmaceuticals, West Point, Pa.), Enalapril™ (Sigma Chemical Co., St. Louis, Mo., Prod. No. E6888), or TGFβ1 neutralizing antibody (R & D Systems) were added in the amounts indicated below to separate wells in triplicate to block the renin cascade at different sites after stimulation by renin: • 10^−5 M Renin Inhibitor R042-5892 (Hoffman-LaRoche) • 10^−5 M Enalapril™ (Sigma Chemical Co., St. Louis, Mo.) • 10^−5 M Losartan™ (Merck Pharmaceuticals, West Point, Pa.) • Controls included neutralizing antibody to TGFβ (ATG) and control IgG (TgG)
as §1

CCOC(=O)[C@H](CCc1ccccc1)N[C@@H](C)C(=O)N1CCC[C@H]1C(=O)O [enalapril]
renin-induced increase in TGFβ production [1]: does not reduce the renin-induced increase in TGFβ production
renin-induced increase in TGFβ production [2]: does not reduce the renin-induced increase in TGFβ production
